Results taken from publication PMC10761119, “Phosphorylation-state dependent intraneuronal sorting of Aβ differentially impairs autophagy and the endo-lysosomal system” (Autophagy, 2023).

Tests used:
primary cortical neurons [1] = test: Immunocytochemistry of surface associated and internalized Aβ; type: cell-based, mouse; settings: Aβ 500 nM, 4 h; antibody 82E1; ~200 neurons, N = 4
primary cortical neurons [2] = test: Lysosome enrichment, immunoisolation of LAMP2- or LC3-positive vesicles and Aβ immunoprecipitation with western immunoblotting; type: cell-based, mouse; settings: Aβ 500 nM, 4 h; for Intraneuronal accumulation of Aβ peptides by immunoprecipitation of total Aβ (rank order): IP from PNS with 4G8; for Aβ levels in the lysosomal/late endosomal enriched fraction (16,000 g pellet): immunoblot, two independent experiments; for Aβ in LAMP2-immunoisolated lysosomes: compared to p-Ser8Aβ
Experimental: Cells after respective washing steps were collected by scraping and homogenized in isotonic buffer (10 mM Tris-HCl, pH 7.4, 1 mM MgCl2, 0.1 mM EGTA, 0.25 M sucrose) containing protease and phosphatase inhibitors, by repeated suspension through a 23 G × 1” needle. Cell homogenate was centrifuged at 2,000 g for 5 min. Pellet (nuclear material) was discarded. The post-nuclear supernatant was centrifuged at 16,100 g for 15 min. Pellet comprised of lysosome enriched material and the supernatant was used as the crude lysosome depleted material. Pellet was resuspended in STEN-lysis buffer and the lysosome enriched fraction was the supernatant collected after centrifugation at 16,100 g for 15 min. Supernatant was further centrifuged at 16,100 g for 60 min. The resultant pellet contained lysosome depleted material and supernatant was crude cytosolic material. The pellet was re-homogenized in STEN-lysis buffer and the supernatant was the lysosome depleted fraction collected post-centrifugation at 16,100 g for 15 min.
Cells after respective washing steps were collected by scraping and homogenized in either isotonic buffer or hypotonic D buffer containing protease and phosphatase inhibitors by repeated suspension through a 23 G × 1” needle. Cell homogenate was centrifuged at 2,000 g for 5 min and the nuclear material (pellet) was discarded. The post-nuclear supernatant was then used for IP experiments. Sepharose G beads (ThermoFisher Scientific, 101242) were incubated with PNS material at RT for 1 h, beads were further pelleted down and boiled in 1% SDS in 50 mM Tris-HCl, pH 7.6 along with sample buffer, used as bead control. Supernatant exposed to beads only were devoid of nonspecific binding substrates and was used further as loading control. New set of beads were precoated with respective primary antibodies for 1 h and then incubated with the PNS solutions overnight at 4°C. Beads were pelleted down and boiled with 1% SDS in 50 mM Tris-HCl along with sample buffer as the IP eluate.
For different cellular fractions prepared as described earlier, the protein content was estimated using the standard Pierce™ BCA protein assay kit (ThermoFisher Scientific, 23225). For direct comparison between the samples, equal amount of protein was loaded. Samples were dissolved in Laemmli buffer and were boiled at 95°C for 5 min. They were loaded on a precast 4–12% NuPage® Bis-Tris gels (Life technologies, NP033–5/6, WG140–2/3). Gels and prestained protein molecular weight markers were purchased from Life technologies. The separated proteins were electro-transferred onto a 0.2-μm nitrocellulose (NT) membrane (Amersham, 1060001) for 1 h 45 min. After blotting, the NT membranes were boiled in PBS for 10 min. Ponceau staining was done to monitor protein loading of samples. The blots were then incubated in 5% skim milk in TBS-T (TBS [50 mM Tris-HCl, pH 7.5, 150 mM NaCl] containing 0.1% Tween 20 [Sigma Aldrich, P1379]) for 1 h at RT. Blots were incubated overnight at 4°C in the primary antibody solution (respective dilutions in TBS-T, Table 1). Blots were washed and incubated with appropriate secondary antibodies conjugated either with HRP or fluorescent dyes for 1 h. Blots were developed either by enhanced chemiluminescence (ECL) or fluorescence imaging. For ECL imaging, blots were incubated with equivalent mixtures of ECL solution A (0.1 M Tris, 0.4 mM coumaric acid, 2.5 mM luminol, pH 8.5) and B (0.1 M Tris, 0.018% H2O2) mixed prior to application on blots. Signals were detected with an ECL imager (Bio-Rad, Germany). For fluorescence detection, blots were imaged on a Li-COR imaging station (Li-COR Biosciences, Germany). Blots were presented as is or with minimal linear contrast enhancement (Figure 5B–D; S1; S3E; S5E, S8E). Quantification of band signals was done using ImageJ – Gel processing module or Image Studio processing software (LiCOR Biosciences, Germany). […]

SH-SY5Y cells = test: Autophagic flux with tandem reporter mCherry-GFP-LC3B; type: cell-based, human; settings: Aβ 1 µM, 24 h, n = 8, N = 4; for Mander's overlap coefficient, R, of Aβ with GFP-positive vesicles / Mander's overlap coefficient, R, of Aβ with mCherry-positive vesicles: mean ± S.D.
Experimental: SH-SY5Y cells were transfected with either GFP-LC3-LC3Δ-RFP or mCherry-GFP-LC3B tandem constructs (0.5 μg/well +1 µl transfection reagent − 24 well plate) with Lipofectamine 2000 (Life Technologies, 11668019) in OptiMEM (Life Technologies, 11058021) in DMEM/F-12, FCS^− PS^− media. After 8 h, FCS^− PS^− media was changed to normal culture media, respectively. Transfection efficiency was around 50–60% in all analyzed coverslips.
SH-SY5Y cells seeded on D1, were treated with Aβ variants (1 μM) on D3 in DMEM/F-12 media without serum and antibiotics. Control treatment included treatment with equal volume of 10 mM NaOH solution used for preparing the Aβ stock solutions, in respective cell culture medium. SH-SY5Y cells, after 16 h of transient expression of the reporter constructs, were treated with different Aβ variants, autophagy modulator substrates and respective controls in DMEM/F-12, FCS^− PS^− media for the mentioned time points. After treatment, cells were washed twice with PBS and with 0.025% trypsin-EDTA in PBS to get rid of cell bound Aβ, followed by subsequent washings with PBS again. Cells were either collected by scraping using a cell-scraper or fixed with 4% PFA-PBS for 15 min at RT, for further immunocytochemistry experiments. Collected treatment media was centrifuged at 1000 g for 5 min, pellet discarded and supernatant frozen at −20°C until further usage.
All images were processed and analyzed using Fiji ImageJ software. Mander’s overlap coefficient (Figure 1B–D; Figure 2B–F; Figure 4B–F; Figure 6E; S2B, D; S4B, D; S6D, F) analysis was done using the colocalization processing module of the Fiji ImageJ plugin. Distance from the plaque core (Figure 1B) was measured using the concentric circles plugin module. Fluorescence intensity of the green channel (Figure S3A-B), and the number of neurons positive for Aβ signals (Figure S3-D) were quantified using the processing module of Keyence software. Intensity analysis (Figure S4E-I) was performed by manually selecting the region of interest (ROI) and measuring the intensity of the individual channels in the selected area. RFP/GFP (Figure 6A) and LysoSensor Green/Blue (Figure 7A) ratiometric images were created by using the image calculator module. Intensity of green and red channel for a particular ROI was calculated and ratios of the individual values were computed (Figure 6B and S7A). For computing the number of mCherry^+GFP^± vesicles or per cell (Figure 6D and S7B), cell outline was drawn manually and number of vesicles per cell (nucleus count – DAPI) was calculated. Similarly, the number of perinuclear and peripheral LAMP2-positive lysosomes or percentage of LAMP2 compartments containing Aβ was computed using the concentric circle processing module (Figure 7D). Due to slight variability in transfection efficiency or the number of cells in different experimental set-ups, the readings from each experiment were averaged and normalized to the control cells from that particular set. Average values from each experiment were normalized to the respective controls in the same set. Values from independent experiments were then computed and values are represented as independent data points.

Substance | Fluorescence intensities of Aβ signals in unpermeabilized and permeabilized cells (binding to neuronal membranes and intraneuronal accumulation) (primary cortical neurons [1]) | Intraneuronal accumulation of Aβ peptides by immunoprecipitation of total Aβ (rank order) (primary cortical neurons [2]) | Aβ levels in the lysosomal/late endosomal enriched fraction (16,000 g pellet) (primary cortical neurons [2]) | Aβ in LC3 immunoisolated vesicles (primary cortical neurons [2]; western immunoblot 82E1) | Number of mCherry+ GFP+ vesicles per cell (SH-SY5Y cells; compared to control and to p-Ser26Aβ treated cells) | Mander's overlap coefficient, R, of Aβ with GFP-positive vesicles (SH-SY5Y cells) | Mander's overlap coefficient, R, of Aβ with mCherry-positive vesicles (SH-SY5Y cells) | Number of mCherry+ GFP− vesicles per cell (SH-SY5Y cells) | Aβ in LAMP2-immunoisolated lysosomes (primary cortical neurons [2]; western immunoblot 82E1) | Ratio of mCherry:GFP fluorescence intensities (SH-SY5Y cells; compared to control cells)
amyloid-β phosphorylated at serine residue 8 [p-Ser8Aβ] | highest fluorescence intensities | p-Ser8Aβ > p-Ser26Aβ > npAβ | only marginal levels | high levels | significantly higher | 0.56 ± 0.10 | 0.57 ± 0.06 | significantly least |  | 
amyloid-β phosphorylated at serine residue 26 [p-Ser26Aβ] | followed by p-Ser26Aβ | p-Ser8Aβ > p-Ser26Aβ > npAβ | high levels |  |  | 0.30 ± 0.05 | 0.70 ± 0.05 | significantly higher number | strongly enriched | 
non-phosphorylated amyloid-β [npAβ, reference compound] | least | p-Ser8Aβ > p-Ser26Aβ > npAβ | moderate levels |  |  | 0.40 ± 0.05 | 0.61 ± 0.04 |  | strongly enriched | not significantly altered
